Tests used:
[1] = system: EphB4 gene expression in SW620 cells; experiment: Treatment of colorectal cancer cell line SW620, EphB4 gene expression by RT-PCR; assay type: cell-based; details: 72 h
Procedure: (§1) Top panel: changes in gene expression a measured by RT-PCR. Lower panel: changes in methylation a measure by PCR on bisulfite treated DNA with methylation specific primers.
(§2) Cultures of the colorectal cancer cell line SW620, characterized by a low expression level and methylation the EphB4 promoter; were treated during 72 h with different concentrations of 5aza- cytidin.

EphB4 promoter = experiment: Treatment of SW620, EphB4 promoter methylation by PCR on bisulfite treated DNA with methylation specific primers; assay type: cell-based; details: SW620 cells
Procedure: as §1, §2

Question: How did the “most effective dose for increase of EphB4 gene expression” value [1] turn out when `Nc1ncn([C@@H]2O[C@H](CO)[C@@H](O)[C@H]2O)c(=O)n1` [5-aza-cytidine] was run?
Answer: Its value is 10 µM.

Question: And the “level of EphB4 gene expression” value ([1]; different concentrations)?
Answer: The value was “increase”.

Question: What about the “methylation of the EphB4 promoter” value (EphB4 promoter) of the same compound?
Answer: The value was “reduces the methylation”.

— patent publication US20100035762A1, “Prognostic Methods in Colorectal Cancer” (Oryzon Genomics, S.A., priority 2006, published 2010)
